Results on five molecules are retold here after patent publication US20110112100A1, “Hepatitis C Virus Inhibitors” (priority 2009, published 2011).

Data set [1] concerns 1a-H77 replicon cells. Nature of the data set: HCV 1a replicon inhibitory activity (Renilla luciferase). Particulars: Hepatitis C virus, read-out: IC50 value (95% Confidence Intervals) pM Replicon 1A assay. The class given is cell-based, hepatitis C virus. The essentials: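 Replicon cells in DMEM + 10% FCS incubated 48 hours at 37° C., 5% CO2 with 1-in-3 serial dilutions of compound prepared in DMSO. Replication read as Renilla luciferase luminescence after lysis. EC50 taken from log concentration-response curves.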
(Replicon systems follow genome replication, usually without infectious particles.)

A short description of data set [2]: Plasma protein binding, Rapid Equilibrium Dialysis. Type of data set: in vitro ADME. Particulars: human plasma proteins. As for the experimental part:
Plasma binding free fractions (fu) were determined using a proprietary validated Rapid Equilibrium Dialysis (RED) device (Thermofisher). The analyte was spiked to a concentration of 2 μM in pre-prepared male CD rat plasma and 220 μl aliquots (n=4) were loaded into a RED device. The samples were dialysed vs. 350 μl of dulbeccos phosphate buffered saline (dPBS) for 4 h at 37° C. in a CO2 incubator in order to reach equilibrium. After 4 hours, 45 μl buffer and 15 μl plasma aliquots were taken and added to a 200 μl 384-well polypropylene plate. Respective volumes of control buffer were added to the plasma or control plasma was added to the buffer samples to give an identical matrix between samples. The samples were then crashed in 120 μl of acetonitrile and analysed via LC-MS/MS.
For highly bound compounds in the potency assay, which includes 10% foetal calf serum, measured potencies may not reflect real intrinsic potency due to a significant degree of compound binding.
(In equilibrium dialysis only unbound substance equilibrates across the membrane.)

Data set [3] relates to 1b (con1) replicon cells. Nature of the data set: HCV 1b replicon inhibitory activity (luciferase, Britelite Plus). The conditions noted are these: Hepatitis C virus, read-out: IC50 value (95% Confidence Intervals) pM Replicon 1B assay. The class given is cell-based, hepatitis C virus. In a few lines: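 1b (con1) luciferase replicon cells in DMEM + 10% FCS were exposed to 1-in-3 DMSO compound dilutions for 48 h at 37° C, 5% CO2. Luminescence was read 1-15 min after Britelite Plus addition; EC50 came from log concentration-response curves.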

Data set [4] is described as follows: Compound induced cytotoxicity in HCV replicon cell lines (WST-1 reagent). Type of data set: cell-based. The conditions noted are these: human. Here is the method: Test compounds were solubilised to 4 mM in 100% DMSO. Dilutions were made to the desired starting concentration in 100% DMSO and then 1 in 3 dilutions made, again in 100% DMSO. 0.5 μl of each sample was added to 384-well assay plates. White Lumitrac (Greiner) plates were used for the 1a and 1b replicon assays and black, clear bottomed (Greiner) plates were used for the WST-1 cytotoxity assay.
1b (con1) replicon cells were resuspended to a concentration of 1.4×10^5 cells/ml by addition of pre-warmed medium (DMEM+10% FCS). 50 μl of this suspension was added to each well of a 384-well assay plate (Black, clear bottomed, Greiner) already containing 0.5 μl of test compound.
All plates were covered with gas permeable seals and incubated at 37° C., 5% CO2 for 48 hours. After 48 hours, 5 μl WST-1 reagent (Roche, 11 644 807 001) was added to each well and the plate returned to the incubator for 3 hours. After this incubation period absorbance was read at 450 nm on an EnVision (Perkin Elmer) plate reader. The half maximal cytotoxic concentration (CC50) values were calculated for each compound by constructing log concentration-response curves.
All of the exemplified compounds have been screened in a cell proliferation assay (WST-1). A majority have […] in at least 2 independent experiments, the exceptions being the compounds of examples 1, 10, 12, 23, 25, 37, 47, 48, 49, 52, 56, 57, 58, 60, 67, 68, 69, 70, 71, 72, 73, 74, 79, 81 and 84 which have CC50 values>2 μM in 1 experiment, and example 20 where the CC50 is reported as >10 nM (in this instance the top concentration tested in the assay was 10 nM).

Where [5] appears, read: geometric mean, 95% confidence intervals in parentheses, 48 hours, medium with 10% FCS.

Structures are written as SMILES. Where a name gives a salt, the structure may show the parent alone. Read-outs that look alike come from different tables or passages of the source. Some results are limits rather than exact numbers.

One may read the IC50 as the point on the concentration scale where inhibition reaches its midpoint. Broadly, the fraction unbound is free concentration divided by total concentration. Read a high fraction unbound as much free substance. The CC50 is the concentration that lowers cell viability or growth by half. Higher therefore signals lower toxicity to the cells. `COC(=O)N[C@H](C(=O)N1CCC[C@H]1c1ncc(-c2ccc(-c3ncc4cc(-c5cnc([C@@H]6CCCN6C(=O)[C@@H](NC(=O)OC)C(C)C)[nH]5)ccc4n3)cc2)[nH]1)C(C)C` [Example 1]: the half-inhibitory concentration (IC50) is 36 pM in data set [1] (setting [5]) and 5.89 pM in data set [3] (setting [5]). This molecule also gave a free fraction (fraction unbound) at 4 h, 2 µM in data set [2] of 0.0015. Also, the CC50 at 48 h in data set [4] (1b (con1) HCV replicon cells, WST-1, 48 hours, in 1 experiment) was > 2000 nM.

Regarding `COC(=O)N[C@H](C(=O)N1CCC[C@H]1c1ncc(-c2ccc(-c3ccc4cc(-c5cnc([C@@H]6CCCN6C(=O)[C@@H](NC(=O)OC)C(C)C)[nH]5)ccc4c3)cc2)[nH]1)C(C)C` [Example 2, Methyl {(2S)-1-[(2S)-2-{5-[6-(4-{2-[(2S)-1-{(2S)-2-[(methoxycarbonyl)amino]-3-methyl-butanoyl}pyrrolidin-2-yl]-1H-imidazol-4-yl}phenyl)naphthalen-2-yl]-1H-imidazol-2-yl}pyrrolidin-1-yl]-3-methyl-1-oxobutan-2-yl}carbamate], the IC50 in data set [1] (setting [5]) worked out at 22.3 pM; in data set [3] (setting [5]) it was 2.37 pM. Further, in data set [2], the fraction unbound at 4 h, 2 µM was 0.001.

As to `COC(=O)N[C@H](C(=O)N1CCC[C@H]1c1nc(-c2ccc3nc(-c4ccc(-c5cnc([C@@H]6CCCN6C(=O)[C@@H](NC(=O)OC)C(C)C)[nH]5)cc4)ccc3c2)c[nH]1)C(C)C` [Example 3, [(S)-1-((S)-2-{4-[2-(4-{2-[(S)-1-((S)-2-Methoxycarbonylamino-3-methyl-butyryl)-pyrrolidin-2-yl]-3H-imidazol-4-yl}-phenyl)-quinolin-6-yl]-1H-imidazol-2-yl}-pyrrolidine-1-carbonyl)-2-methyl-propyl]-carbamic acid methyl ester], the IC50 in data set [1] (setting [5]) was 74.6 pM; in data set [3] (setting [5]) it was 9.31 pM. The free fraction (fraction unbound) at 4 h, 2 µM in data set [2] is < 0.0015.

Regarding `COC(=O)N[C@H](C(=O)N1CCC[C@H]1c1nc(-c2ccc(-c3cnc4cc(-c5cnc([C@@H]6CCCN6C(=O)[C@@H](NC(=O)OC)[C@@H](C)O)[nH]5)ccc4n3)cc2)c[nH]1)C(C)C` [Example 60, Methyl {(2S)-1-[(2S)-2-{4-[4-(6-{2-[(2S)-1-{(2S,3R)-3-hydroxy-2-[(methoxycarbonyl)amino]butanoyl}pyrrolidin-2-yl]-1H-imidazol-5-yl}quinoxalin-2-yl)phenyl]-1H-imidazol-2-yl}pyrrolidin-1-yl]-3-methyl-1-oxobutan-2-yl}carbamate trifluoroacetic acid salt], the concentration for half-maximal inhibition (IC50) in data set [1] (48 h) is 22.3 pM; in data set [3] (48 h), 23.7 pM. In addition, the cytotoxic concentration (CC50) at 48 h in data set [4] (WST-1, 48 hours, in 1 experiment) is > 2000 nM.

With `COC(=O)N[C@H](C(=O)N1CCC[C@H]1c1ncc(-c2ccc(-c3ncc4cc(-c5cnc([C@@H]6CCCN6C(=O)[C@@H](NC(=O)OC)C(C)C)[nH]5)ccc4n3)nc2)[nH]1)C(C)C` [Example 20, Methyl {(2S)-1-[(2S)-2-{5-[2-(5-{2-[(2S)-1-{(2S)-2-[(methoxycarbonyl)amino]-3-methylbutanoyl}pyrrolidin-2-yl]-1H-imidazol-5-yl}pyridin-2-yl)quinazolin-6-yl]-1H-imidazol-2-yl}pyrrolidin-1-yl]-3-methyl-1-oxobutan-2-yl}carbamate], the IC50 in data set [1] (setting [5]) turned out to be 1720 pM; in data set [3] (setting [5]) it was 127 pM. Besides, the half-maximal cytotoxic concentration (CC50) at 48 h in data set [4] (1b (con1) HCV replicon cells, WST-1, top concentration tested in the assay was 10 nM) is > 10 nM.
